Results: ChEMBL document CHEMBL3994622, “Design and synthesis of new RAF kinase-inhibiting antiproliferative quinoline derivatives. Part 2: Diarylurea derivatives” (Eur J Med Chem, 2017)

What was measured:
[1] = target: Dual specificity mitogen-activated protein kinase kinase 1 (Homo sapiens) (UniProt Q02750); assay: Inhibition of human MEK1 at 10 uM using ERK2 as substrate in presence of [33P]ATP by Hotspot assay relative to control
LOX IMVI = assay: Growth inhibition of human LOXIMVI cells assessed as cell growth at 30 uM incubated for 48 hrs by sulforhodamine B assay relative to control; type: functional; conditions: read-out: Activity
[2] = target: Vascular endothelial growth factor receptor 2 (Homo sapiens) (UniProt P35968); assay: Inhibition of human KDR at 10 uM using poly[Glu:Tyr] (4:1) as substrate in presence of [33P]ATP by Hotspot assay relative to control
Sequence of Vascular endothelial growth factor receptor 2 (Homo sapiens) (P35968 whole entry): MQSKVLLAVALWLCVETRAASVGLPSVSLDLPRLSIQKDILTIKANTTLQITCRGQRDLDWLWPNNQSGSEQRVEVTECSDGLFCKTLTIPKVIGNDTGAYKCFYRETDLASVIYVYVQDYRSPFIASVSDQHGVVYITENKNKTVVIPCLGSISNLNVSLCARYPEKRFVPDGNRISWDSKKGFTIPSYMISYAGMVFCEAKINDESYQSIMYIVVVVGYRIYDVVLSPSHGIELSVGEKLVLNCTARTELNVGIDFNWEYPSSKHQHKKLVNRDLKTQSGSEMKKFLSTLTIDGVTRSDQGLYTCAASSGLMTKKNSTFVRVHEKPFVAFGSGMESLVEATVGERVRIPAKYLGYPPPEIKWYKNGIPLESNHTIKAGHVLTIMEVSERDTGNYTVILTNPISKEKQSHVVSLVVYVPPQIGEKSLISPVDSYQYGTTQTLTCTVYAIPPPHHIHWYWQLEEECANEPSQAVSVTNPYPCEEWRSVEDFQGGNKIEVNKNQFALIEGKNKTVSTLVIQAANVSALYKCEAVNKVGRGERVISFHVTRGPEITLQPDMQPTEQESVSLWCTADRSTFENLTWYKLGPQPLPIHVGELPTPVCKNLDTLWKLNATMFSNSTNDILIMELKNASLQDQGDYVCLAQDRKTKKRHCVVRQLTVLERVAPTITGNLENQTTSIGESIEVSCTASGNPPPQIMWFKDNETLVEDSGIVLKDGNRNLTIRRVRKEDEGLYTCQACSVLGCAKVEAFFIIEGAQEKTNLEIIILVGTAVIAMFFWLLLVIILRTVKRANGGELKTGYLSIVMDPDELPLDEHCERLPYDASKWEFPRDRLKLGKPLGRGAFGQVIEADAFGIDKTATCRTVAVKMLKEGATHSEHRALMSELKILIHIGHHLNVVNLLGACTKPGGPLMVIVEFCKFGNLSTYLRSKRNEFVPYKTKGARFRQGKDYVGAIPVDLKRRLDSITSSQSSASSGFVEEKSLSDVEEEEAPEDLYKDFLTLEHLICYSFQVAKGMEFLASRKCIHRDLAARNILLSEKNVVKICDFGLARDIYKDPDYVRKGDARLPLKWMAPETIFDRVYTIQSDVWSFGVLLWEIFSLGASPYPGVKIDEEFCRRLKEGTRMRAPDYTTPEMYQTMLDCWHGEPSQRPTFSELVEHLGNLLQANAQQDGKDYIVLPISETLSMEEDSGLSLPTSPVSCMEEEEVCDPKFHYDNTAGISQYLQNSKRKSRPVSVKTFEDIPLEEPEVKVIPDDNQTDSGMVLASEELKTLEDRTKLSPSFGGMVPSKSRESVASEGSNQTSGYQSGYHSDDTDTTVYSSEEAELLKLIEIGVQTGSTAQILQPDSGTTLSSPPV

[3] = target: Receptor-type tyrosine-protein kinase FLT3 (Homo sapiens) (UniProt P36888); assay: Inhibition of human FLT3 at 10 uM using EAIYAAPFAKKK as substrate in presence of [33P]ATP by Hotspot assay relative to control
Sequence of Receptor-type tyrosine-protein kinase FLT3 (Homo sapiens) (P36888 whole entry): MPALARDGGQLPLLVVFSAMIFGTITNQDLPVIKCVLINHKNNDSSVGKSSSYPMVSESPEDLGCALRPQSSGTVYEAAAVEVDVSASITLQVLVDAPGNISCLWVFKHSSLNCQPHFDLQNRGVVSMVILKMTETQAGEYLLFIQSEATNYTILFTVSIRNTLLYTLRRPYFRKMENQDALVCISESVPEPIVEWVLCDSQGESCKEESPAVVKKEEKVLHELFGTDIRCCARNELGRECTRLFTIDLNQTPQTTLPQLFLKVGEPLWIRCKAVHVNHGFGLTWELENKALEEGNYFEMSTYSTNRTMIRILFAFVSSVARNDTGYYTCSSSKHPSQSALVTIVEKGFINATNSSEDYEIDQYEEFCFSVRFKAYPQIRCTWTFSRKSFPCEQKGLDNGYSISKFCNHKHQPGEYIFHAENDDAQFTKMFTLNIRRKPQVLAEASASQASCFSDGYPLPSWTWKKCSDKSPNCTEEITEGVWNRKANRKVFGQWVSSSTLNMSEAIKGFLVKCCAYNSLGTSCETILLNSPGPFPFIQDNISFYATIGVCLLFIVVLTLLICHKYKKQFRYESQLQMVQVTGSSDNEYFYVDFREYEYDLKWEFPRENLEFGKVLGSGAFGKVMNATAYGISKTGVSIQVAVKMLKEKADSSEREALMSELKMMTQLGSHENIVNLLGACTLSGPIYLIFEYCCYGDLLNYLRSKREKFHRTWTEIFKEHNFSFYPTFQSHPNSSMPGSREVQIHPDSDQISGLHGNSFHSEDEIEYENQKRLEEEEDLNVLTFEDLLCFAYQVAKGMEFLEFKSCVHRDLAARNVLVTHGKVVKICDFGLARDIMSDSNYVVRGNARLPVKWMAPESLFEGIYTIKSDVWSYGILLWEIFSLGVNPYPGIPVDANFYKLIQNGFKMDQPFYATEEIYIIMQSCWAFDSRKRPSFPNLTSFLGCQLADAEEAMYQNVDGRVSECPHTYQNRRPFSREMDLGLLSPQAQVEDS

OVCAR-4 = assay: Growth inhibition of human OVCAR4 cells assessed as cell growth at 0.5 uM incubated for 48 hrs by sulforhodamine B assay relative to control; type: functional; conditions: OVCAR-4, 48 h, read-out: Activity
HCT-116 [4] = assay: Growth inhibition of human HCT116 cells assessed as cell growth at 50 uM incubated for 48 hrs by sulforhodamine B assay relative to control; type: functional; conditions: HCT-116, 48 h, read-out: Activity
NCI-H226 = assay: Growth inhibition of human NCI-H226 cells assessed as cell growth at 5 uM incubated for 48 hrs by sulforhodamine B assay relative to control; type: functional; conditions: NCI-H226, 48 h, read-out: Activity
OVCAR-8 = assay: Growth inhibition of human OVCAR8 cells assessed as cell growth at 5 uM incubated for 48 hrs by sulforhodamine B assay relative to control; type: functional; conditions: OVCAR-8, 48 h, read-out: Activity
SNB-19 [5] = assay: Growth inhibition of human SNB19 cells assessed as cell growth at 50 uM incubated for 48 hrs by sulforhodamine B assay relative to control; type: functional; conditions: SNB-19, 48 h, read-out: Activity
OVCAR-3 = assay: Growth inhibition of human OVCAR3 cells assessed as cell growth at 0.05 uM incubated for 48 hrs by sulforhodamine B assay relative to control; type: functional; conditions: OVCAR-3, 48 h, read-out: Activity
UO-31 = assay: Growth inhibition of human UO31 cells assessed as cell growth at 5 uM incubated for 48 hrs by sulforhodamine B assay relative to control; type: functional; conditions: UO-31, 48 h, read-out: Activity
BT-549 [6] = assay: Growth inhibition of human BT549 cells assessed as cell growth at 0.05 uM incubated for 48 hrs by sulforhodamine B assay relative to control; type: functional; conditions: BT-549, 48 h, read-out: Activity
ACHN [7] = assay: Growth inhibition of human ACHN cells assessed as cell growth at 0.05 uM incubated for 48 hrs by sulforhodamine B assay relative to control; type: functional; conditions: read-out: Activity
HCT-116 [8] = assay: Growth inhibition of human HCT116 cells assessed as cell growth at 0.5 uM incubated for 48 hrs by sulforhodamine B assay relative to control; type: functional; conditions: HCT-116, 48 h, read-out: Activity
SNB-19 [9] = assay: Growth inhibition of human SNB19 cells assessed as cell growth at 0.5 uM incubated for 48 hrs by sulforhodamine B assay relative to control; type: functional; conditions: SNB-19, 48 h, read-out: Activity
RXF 393 = assay: Growth inhibition of human RXF393 cells assessed as cell growth at 50 uM incubated for 48 hrs by sulforhodamine B assay relative to control; type: functional; conditions: RXF 393, 48 h, read-out: Activity
SK-MEL-2 [10] = assay: Growth inhibition of human SK-MEL-2 cells assessed as cell growth at 0.05 uM incubated for 48 hrs by sulforhodamine B assay relative to control; type: functional; conditions: SK-MEL-2, 48 h, read-out: Activity
Hs-578T = assay: Growth inhibition of human Hs 578T cells assessed as cell growth at 0.05 uM incubated for 48 hrs by sulforhodamine B assay relative to control; type: functional; conditions: read-out: Activity
HT-29 [11] = assay: Growth inhibition of human HT-29 cells assessed as cell growth at 5 uM incubated for 48 hrs by sulforhodamine B assay relative to control; type: functional; conditions: HT-29, 48 h, read-out: Activity
KM12 = assay: Growth inhibition of human KM12 cells assessed as cell growth at 50 uM incubated for 48 hrs by sulforhodamine B assay relative to control; type: functional; conditions: KM12, 48 h, read-out: Activity
EKVX = assay: Growth inhibition of human EKVX cells assessed as cell growth at 0.5 uM incubated for 48 hrs by sulforhodamine B assay relative to control; type: functional; conditions: read-out: Activity
IGROV-1 = assay: Growth inhibition of human IGROV1 cells assessed as cell growth at 0.5 uM incubated for 48 hrs by sulforhodamine B assay relative to control; type: functional; conditions: IGROV-1, 48 h, read-out: Activity
SF-295 [12] = assay: Growth inhibition of human SF295 cells assessed as cell growth at 0.005 uM incubated for 48 hrs by sulforhodamine B assay relative to control; type: functional; conditions: SF-295, 48 h, read-out: Activity
SNB-19 [13] = assay: Growth inhibition of human SNB19 cells assessed as cell growth at 0.05 uM incubated for 48 hrs by sulforhodamine B assay relative to control; type: functional; conditions: SNB-19, 48 h, read-out: Activity
SW-620 = assay: Growth inhibition of human SW620 cells assessed as cell growth at 5 uM incubated for 48 hrs by sulforhodamine B assay relative to control; type: functional; conditions: SW-620, 48 h, read-out: Activity
NCI-H322M [14] = assay: Growth inhibition of human NCI-H322M cells assessed as cell growth at 0.5 uM incubated for 48 hrs by sulforhodamine B assay relative to control; type: functional; conditions: read-out: Activity
SF-295 [15] = assay: Growth inhibition of human SF295 cells assessed as cell growth at 0.5 uM incubated for 48 hrs by sulforhodamine B assay relative to control; type: functional; conditions: SF-295, 48 h, read-out: Activity
NCI-H322M [16] = assay: Growth inhibition of human NCI-H322M cells assessed as cell growth at 0.005 uM incubated for 48 hrs by sulforhodamine B assay relative to control; type: functional; conditions: read-out: Activity
HT-29 [17] = assay: Growth inhibition of human HT-29 cells assessed as cell growth at 50 uM incubated for 48 hrs by sulforhodamine B assay relative to control; type: functional; conditions: HT-29, 48 h, read-out: Activity
SK-MEL-2 [18] = assay: Growth inhibition of human SK-MEL-2 cells assessed as cell growth at 0.5 uM incubated for 48 hrs by sulforhodamine B assay relative to control; type: functional; conditions: SK-MEL-2, 48 h, read-out: Activity
OVCAR-5 = assay: Growth inhibition of human OVCAR5 cells assessed as cell growth at 0.5 uM incubated for 48 hrs by sulforhodamine B assay relative to control; type: functional; conditions: OVCAR-5, 48 h, read-out: Activity
DU-145 = assay: Growth inhibition of human DU145 cells assessed as cell growth at 0.005 uM incubated for 48 hrs by sulforhodamine B assay relative to control; type: functional; conditions: DU-145, 48 h, read-out: Activity
BT-549 [19] = assay: Growth inhibition of human BT549 cells assessed as cell growth at 0.005 uM incubated for 48 hrs by sulforhodamine B assay relative to control; type: functional; conditions: BT-549, 48 h, read-out: Activity
ACHN [20] = assay: Growth inhibition of human ACHN cells assessed as cell growth at 50 uM incubated for 48 hrs by sulforhodamine B assay relative to control; type: functional; conditions: read-out: Activity

Sequence of Dual specificity mitogen-activated protein kinase kinase 1 (Homo sapiens) (Q02750 whole entry): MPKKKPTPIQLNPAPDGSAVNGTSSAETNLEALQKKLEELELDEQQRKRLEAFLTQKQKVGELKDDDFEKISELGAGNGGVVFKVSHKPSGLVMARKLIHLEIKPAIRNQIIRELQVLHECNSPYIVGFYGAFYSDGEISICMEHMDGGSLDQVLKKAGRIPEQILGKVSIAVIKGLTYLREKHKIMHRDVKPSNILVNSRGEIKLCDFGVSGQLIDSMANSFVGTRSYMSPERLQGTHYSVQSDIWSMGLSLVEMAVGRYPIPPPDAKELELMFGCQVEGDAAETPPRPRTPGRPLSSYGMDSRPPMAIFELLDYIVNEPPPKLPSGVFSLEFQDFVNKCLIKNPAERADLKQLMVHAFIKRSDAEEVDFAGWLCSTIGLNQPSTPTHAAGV

`COc1cc2cc(Oc3ccc(NC(=O)Nc4ccc(Cl)c(C(F)(F)F)c4)cc3)c(C)nc2cc1OC` was tested, and the inhibition [1] was -0.258%, the growth at 30 µM (LOX IMVI) was -100% and the inhibition [2] was 0.83%. The inhibition [3] was 33.5%.

Work on `COc1cc2cc(Oc3ccc(NC(=O)Nc4cccc(C(F)(F)F)c4)cc3)c(C)nc2cc1OC` yielded a growth at 0.5 µM (OVCAR-4) of 99%, a growth at 50 µM (HCT-116 [4]) of -86% and a growth at 5 µM (NCI-H226) of 3%. For the same compound, the growth at 5 µM (OVCAR-8) was 10%, the growth at 50 µM (SNB-19 [5]) was -26% and the growth at 0.05 µM (OVCAR-3) was 101%. The growth at 5 µM (UO-31) was 12%, the growth at 0.05 µM (BT-549 [6]) was 84% and the growth at 0.05 µM (ACHN [7]) was 99%. The growth at 0.5 µM (HCT-116 [8]) was 88%, the growth at 0.5 µM (SNB-19 [9]) was 96% and the growth at 50 µM (RXF 393) was -69%. It also gave a growth at 0.05 µM (SK-MEL-2 [10]) of 104%, a growth at 0.05 µM (Hs-578T) of 100% and a growth at 5 µM (HT-29 [11]) of 11%. For the same compound, the growth at 50 µM (KM12) was -59%, the growth at 0.5 µM (EKVX) was 89% and the growth at 0.5 µM (IGROV-1) was 113%. The growth at 0.005 µM (SF-295 [12]) was 90%, the growth at 0.05 µM (SNB-19 [13]) was 91% and the growth at 5 µM (SW-620) was 20%. It also gave a growth at 0.5 µM (NCI-H322M [14]) of 107%, a growth at 0.5 µM (SF-295 [15]) of 86% and a growth at 0.005 µM (NCI-H322M [16]) of 91%. For the same compound, the growth at 50 µM (HT-29 [17]) was -99%, the growth at 0.5 µM (SK-MEL-2 [18]) was 108% and the growth at 0.5 µM (OVCAR-5) was 119%. For the same compound, the growth at 0.005 µM (DU-145) was 103%, the growth at 0.005 µM (BT-549 [19]) was 96% and the growth at 50 µM (ACHN [20]) was -34%.
